Laboratory results published in US11254663B2 (BRISTOL-MYERS SQUIBB COMPANY, priority 2019, dated 2022).
Read-outs that look alike come from different tables or passages of the source.

Target: FXR (Homo sapiens (Human), UniProt Q96RI1)
Experiment: transient human FXR/Gal4-luciferase reporter assay
Assay type: cell-based
How it was run: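 HEK293 cells stably carrying a 5×Gal4 response element–firefly luciferase reporter were transiently transfected overnight with a Gal4 DBD–human FXR LBD fusion plasmid. Compound was added in DMSO and cells were incubated overnight at 37 °C, 5% CO2. Activity was read as Steady-Glo luminescence.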

[1] = Gal4-hFXR fusion construct, HEK293 reporter cells, response relative to 8 μM GW-4064

FXR, sequence (Q96RI1 262-486): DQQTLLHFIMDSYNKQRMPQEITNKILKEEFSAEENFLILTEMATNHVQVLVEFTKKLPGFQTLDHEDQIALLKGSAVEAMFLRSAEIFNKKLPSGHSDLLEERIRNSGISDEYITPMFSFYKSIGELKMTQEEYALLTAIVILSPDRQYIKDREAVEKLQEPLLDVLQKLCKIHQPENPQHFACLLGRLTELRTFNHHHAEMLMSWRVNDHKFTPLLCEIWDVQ

Structure (SMILES) | EC50 | EC50 [1]
CC1(O)CC(C(=O)N(CC23CCC(c4noc(C(C)(C)C)n4)(CC2)CC3)c2cccc(-c3ccc(OC(F)F)cc3)c2)C1 [Example 517, (1S,3S)—N-((4-(5-(tert-butyl)-1,2,4-oxadiazol-3-yl)bicyclo[2.2.2]octan-1-yl)methyl)-N-(4′-(difluoromethoxy)-[1,1′-biphenyl]-3-yl)-3-hydroxy-3-methylcyclobutane-1-carboxamide] | 255 nM | 
CC(C)(C)c1nc(C23CCC(CN(C(=O)C45CC(F)(C4)C5)c4cncc(-c5ccc(OC(F)F)cn5)c4)(CC2)CC3)no1 [Example 486, N-((4-(5-(tert-butyl)-1,2,4-oxadiazol-3-yl)bicyclo[2.2.2]octan-1-yl)methyl)-N-(5-(difluoromethoxy)-[2,3′-bipyridin]-5′-yl)-3-fluorobicyclo[1.1.1]pentane-1-carboxamide] |  | 89 nM
CS(=O)(=O)Nc1ccc(-c2cccc(N(CC34CCC(c5nc(C(F)F)no5)(CC3)CC4)C(=O)C34CC(F)(C3)C4)c2)cc1 [Example 469, N-((4-(3-(difluoromethyl)-1,2,4-oxadiazol-5-yl)bicyclo[2.2.2]octan-1-yl)methyl)-3-fluoro-N-(4′-(methylsulfonamido)-[1,1′-biphenyl]-3-yl)bicyclo[1.1.1]pentane-1-carboxamide] | 654 nM | 
CCOc1ncc(-c2cccc(N(CC34CCC(c5nc(C6CC6)no5)(CC3)OC4)C(=O)C34CC(F)(C3)C4)c2)cn1 [Example 353, N-((1-(3-cyclopropyl-1,2,4-oxadiazol-5-yl)-2-oxabicyclo[2.2.2]octan-4-yl)methyl)-N-(3-(2-ethoxypyrimidin-5-yl)phenyl)-3-fluorobicyclo[1.1.1]pentane-1-carboxamide] |  | 328 nM
Cc1nc2ccc(-c3ccnc(N(CC45CCC(c6cc(C7CC7)nn6C)(CC4)CC5)C(=O)C45CC(F)(C4)C5)c3)cc2s1 [Example 546, N-((4-(3-cyclopropyl-1-methyl-1H-pyrazol-5-yl)bicyclo[2.2.2]octan-1-yl)methyl)-3-fluoro-N-(4-(2-methylbenzo[d]thiazol-6-yl)pyridin-2-yl)bicyclo[1.1.1]pentane-1-carboxamide] | 48 nM | 
COc1cnc(-c2cccc(N(CC34CCC(c5nc(C(C)(C)C)no5)(CC3)CC4)C(=O)C34CC(F)(C3)C4)c2)nc1 [Example 369, N-((4-(3-(tert-butyl)-1,2,4-oxadiazol-5-yl)bicyclo[2.2.2]octan-1-yl)methyl)-3-fluoro-N-(3-(5-methoxypyrimidin-2-yl)phenyl)bicyclo[1.1.1]pentane-1-carboxamide] |  | 68 nM
CCOc1ncc(-c2cncc(N(CC34CCC(c5noc(C(C)(C)C)n5)(CC3)CC4)C(=O)C34CC(F)(C3)C4)c2)cn1 [Example 478, N-((4-(5-(tert-butyl)-1,2,4-oxadiazol-3-yl)bicyclo[2.2.2]octan-1-yl)methyl)-N-(5-(2-ethoxypyrimidin-5-yl)pyridin-3-yl)-3-fluorobicyclo[1.1.1]pentane-1-carboxamide] |  | 1100 nM
COc1cc(-c2cccc(N(CC34CCC(c5cc(C(F)(F)F)ccn5)(CC3)CC4)C(=O)C34CC(F)(C3)C4)c2)ccn1 [Example 241, 3-fluoro-N-(3-(2-methoxypyridin-4-yl)phenyl)-N-((4-(4-(trifluoromethyl)pyridin-2-yl)bicyclo[2.2.2]octan-1-yl)methyl)bicyclo[1.1.1]pentane-1-carboxamide] |  | 1060 nM
CC(C)(C)c1noc(C23CCC(CN(C(=O)C45CC(F)(C4)C5)c4cccc(-c5ccc(NS(=O)(=O)C(F)(F)F)cc5)c4)(CC2)CC3)n1 [Example 372, N-((4-(3-(tert-butyl)-1,2,4-oxadiazol-5-yl)bicyclo[2.2.2]octan-1-yl)methyl)-3-fluoro-N-(4′-((trifluoromethyl)sulfonamido)-[1,1′-biphenyl]-3-yl)bicyclo[1.1.1]pentane-1-carboxamide] |  | 131 nM
COc1cc(-c2cccc(N(CC34CCC(c5cccc(C)n5)(CC3)CC4)C(=O)C34CC(F)(C3)C4)c2)ccn1 [Example 239, 3-Fluoro-N-(3-(2-methoxypyridin-4-yl)phenyl)-N-((4-(6-methylpyridin-2-yl)bicyclo[2.2.2]octan-1-yl)methyl)bicyclo[1.1.1]pentane-1-carboxamide] |  | 1320 nM
CCOc1ncc(-c2cc(N(CC34CCC(c5noc(C(C)(C)C)n5)(CC3)CC4)C(=O)C34CC(F)(C3)C4)ccn2)cn1 [Example 596, N-((4-(5-(tert-butyl)-1,2,4-oxadiazol-3-yl)bicyclo[2.2.2]octan-1-yl)methyl)-N-(2-(2-ethoxypyrimidin-5-yl)pyridin-4-yl)-3-fluorobicyclo[1.1.1]pentane-1-carboxamide] |  | 321 nM
O=C(N(CC12CCC(c3cc(C(F)(F)F)ccn3)(CC1)CC2)c1cccc(-c2ccc(NS(=O)(=O)C3CC3)cc2)c1)C12CC(F)(C1)C2 [Example 354, N-(4′-(Cyclopropanesulfonamido)-[1,1′-biphenyl]-3-yl)-3-fluoro-N-((4-(4-(trifluoromethyl)pyridin-2-yl)bicyclo[2.2.2]octan-1-yl)methyl)bicyclo[1.1.1]pentane-1-carboxamide] |  | 489 nM
CC(C)(C)c1nc(C23CCC(CN(C(=O)C45CC(F)(C4)C5)c4cccc(-c5ccc(NS(=O)(=O)C(F)(F)F)cc5)c4)(CC2)CC3)no1 [Example 446, N-((4-(5-(tert-butyl)-1,2,4-oxadiazol-3-yl)bicyclo[2.2.2]octan-1-yl)methyl)-3-fluoro-N-(4′-((trifluoromethyl)sulfonamido)-[1,1′-biphenyl]-3-yl)bicyclo[1.1.1]pentane-1-carboxamide] |  | 225 nM
CC(F)(F)c1nc(C23CCC(CN(C(=O)C4CC(O)(C(F)(F)F)C4)c4cccc(-c5ccc(C(O)C(F)F)cc5)c4)(CC2)CC3)no1 (single isomer, unassigned) [Example 628 (first eluting isomer)] |  | 92 nM
CC(C)(C)c1nc(C23CCC(CN(C(=O)C45CC(F)(C4)C5)c4cccc(-c5cnc6nc(C7CC7)sc6c5)c4)(CC2)CC3)no1 [Example 458, N-((4-(5-(tert-butyl)-1,2,4-oxadiazol-3-yl)bicyclo[2.2.2]octan-1-yl)methyl)-N-(3-(2-cyclopropylthiazolo[4,5-b]pyridin-6-yl)phenyl)-3-fluorobicyclo[1.1.1]pentane-1-carboxamide] |  | 251 nM
Cn1ncc2cc(-c3cccc(N(CC45CCC(c6nc(C7CC7)no6)(CC4)CC5)C(=O)C45CC(F)(C4)C5)c3)ccc21 [Example 304, N-((4-(3-cyclopropyl-1,2,4-oxadiazol-5-yl)bicyclo[2.2.2]octan-1-yl)methyl)-3-fluoro-N-(3-(1-methyl-1H-indazol-5-yl)phenyl)bicyclo[1.1.1]pentane-1-carboxamide] |  | 248 nM
CC(C)(C#N)Oc1ccc(-c2cc(N(CC34CCC(c5noc(C(C)(C)F)n5)(CC3)CC4)C(=O)[C@H]3C[C@](O)(C(F)(F)F)C3)ccc2F)cc1 [Example 582, (cis)-N-(4′-((2-cyanopropan-2-yl)oxy)-6-fluoro-[1,1′-biphenyl]-3-yl)-N-((4-(5-(2-fluoropropan-2-yl)-1,2,4-oxadiazol-3-yl)bicyclo[2.2.2]octan-1-yl)methyl)-3-hydroxy-3-(trifluoromethyl)cyclobutane-1-carboxamide] |  | 48 nM
Cc1nc2ccc(-c3cccc(N(CC45CCC(c6noc(C(C)(C)C)n6)(CC4)CC5)C(=O)C45CC(F)(C4)C5)c3)cc2s1 [Example 441, N-((4-(5-(tert-butyl)-1,2,4-oxadiazol-3-yl)bicyclo[2.2.2]octan-1-yl)methyl)-3-fluoro-N-(3-(2-methylbenzo[d]thiazol-6-yl)phenyl)bicyclo[1.1.1]pentane-1-carboxamide] |  | 68 nM
Cc1nc2ccc(-c3cccc(N(CC45CCC(c6nnc(C7CC7)o6)(CC4)CC5)C(=O)C4CCC(F)(F)C4)c3)cc2s1 (stereo not drawn) [Example 563, N-((4-(5-cyclopropyl-1,3,4-oxadiazol-2-yl)bicyclo[2.2.2]octan-1-yl)methyl)-3,3-difluoro-N-(3-(2-methylbenzo[d]thiazol-6-yl)phenyl)cyclopentane-1-carboxamide] | 154 nM | 
CC(C)Oc1ccc(-c2cccc(N(CC34CCC(c5cc(C6(F)CC6)nn5C)(CC3)CC4)C(=O)OC(C)(C)C(F)(F)F)c2)cc1 [Example 655, 1,1,1-trifluoro-2-methylpropan-2-yl ((4-(3-(1-fluorocyclopropyl)-1-methyl-1H-pyrazol-5-yl)bicyclo[2.2.2]octan-1-yl)methyl)(4′-isopropoxy-[1,1′-biphenyl]-3-yl)carbamate] |  | 819 nM
O=C(N(CC12CCC(c3nc(C4CC4)no3)(CC1)CC2)c1cccc(-c2ccc(C(F)(F)F)nc2)c1)C12CC(F)(C1)C2 [Example 280, N-((4-(3-cyclopropyl-1,2,4-oxadiazol-5-yl)bicyclo[2.2.2]octan-1-yl)methyl)-3-fluoro-N-(3-(6-(trifluoromethyl)pyridin-3-yl)phenyl)bicyclo[1.1.1]pentane-1-carboxamide] |  | 308 nM
N#Cc1cnc2ccc(-c3cccc(N(CC45CCC(c6nc(C7CC7)no6)(CC4)CC5)C(=O)C45CC(F)(C4)C5)c3)nn12 [Example 306, N-(3-(3-cyanoimidazo[1,2-b]pyridazin-6-yl)phenyl)-N-((4-(3-cyclopropyl-1,2,4-oxadiazol-5-yl)bicyclo[2.2.2]octan-1-yl)methyl)-3-fluorobicyclo[1.1.1]pentane-1-carboxamide] |  | 386 nM
CC(C)(F)c1nc(C23CCC(CN(C(=O)OC4CC(F)(F)C4)c4cc(-c5ccc(OC(F)F)cc5)c(F)cn4)(CC2)CC3)no1 [Example 630, 3,3-difluorocyclobutyl(4-(4-(difluoromethoxy)phenyl)-5-fluoropyridin-2-yl)((4-(5-(2-fluoropropan-2-yl)-1,2,4-oxadiazol-3-yl)bicyclo[2.2.2]octan-1-yl)methyl)carbamate] |  | 160 nM
CS(=O)(=O)Nc1ncc(-c2cccc(N(CC34CCC(c5nc(C6CC6)no5)(CC3)CC4)C(=O)C34CC(F)(C3)C4)c2)cn1 [Example 272, N-((4-(3-cyclopropyl-1,2,4-oxadiazol-5-yl)bicyclo[2.2.2]octan-1-yl)methyl)-3-fluoro-N-(3-(2-(methylsulfonamido)pyrimidin-5-yl)phenyl)bicyclo[1.1.1]pentane-1-carboxamide] |  | 559 nM
